The source of these data is PMC9000575, “Solution Equilibrium Studies on Salicylidene Aminoguanidine Schiff Base Metal Complexes: Impact of the Hybridization with L-Proline on Stability, Redox Activity and Cytotoxicity” (Molecules, 2022).

Holding throughout (assay type): physicochemical
Series [1] in a line: stability constants of Fe(II) complexes by pH-potentiometry. The following applies: 30% (v/v) DMSO/H2O; for logβ [Fe(II)LH−1] / logβ [Fe(II)LH−2]− / logβ [Fe(II)L]+: 25 °C, I = 0.10 M (KCl), anaerobic; for pFe(II) (−log[Fe(II)]): calculated at pH 7.4, cFe = 1 μM, cligand = 10 μM. As for the experimental part:
Complexation with Fe(II) was studied under strictly anaerobic conditions. […] Aside from the better solubility of the Pro-SISC-Me complexes, the two ligands behaved similarly and the difference between their Fe(II)-binding efficacy was minor.
(§1) The pH-potentiometric measurements for the determination of the proton dissociation constants of the ligands and the overall stability constants of the metal complexes were carried out at 25.0 ± 0.1 °C in water or in 30% (v/v) DMSO/H2O as solvent and at an ionic strength of 0.10 M (KCl). The titrations were performed with carbonate-free KOH solution of known concentration (0.10 M). The concentrations of the base and the HCl were determined by pH-potentiometric titrations. An Orion 710A pH-meter equipped with a Metrohm combined electrode (type 6.0234.100), and a Metrohm 665 Dosimat burette were used for the titrations. […] The average water ionization constant pKw was 13.76 ± 0.05 (water) or 14.52 ± 0.05 (30% (v/v) DMSO/H2O). The pH-potentiometric titrations were performed in the pH range 2.0–12.5. The initial volume of the samples was 10.0 mL. The ligand concentration was 2 mM and metal ion-to-ligand ratios of 1:1–1:3 were used. The accepted fitting of the titration curves was always less than 0.01 mL. Argon was always passed over the solutions during the titrations. The exact concentration of the ligand stock solutions together with the proton dissociation constants were determined by pH-potentiometric titrations with the use of the computer program HYPERQUAD [44]. It was also utilized to establish the stoichiometry of the complexes and to calculate the stability constants (β(MpLqHr)). β(MpLqHr) is defined for the general equilibrium pM + qL + rH ⇋ MpLqHr as β(MpLqHr) = [MpLqHr]/[M]^p[L]^q[H]^r, where M denotes the metal ion and L the completely deprotonated ligand. In all calculations exclusively, titration data were used from experiments in which no precipitate was visible in the reaction mixture.

Series [2] can be described thus: stability constants of Fe(III) complexes by pH-potentiometry. The following applies: 30% (v/v) DMSO/H2O; for pFe(III)* (−logΣ[Fe(III)i(OH)j]): calculated at pH 7.4, cFe = 1 μM, cligand = 10 μM. As for the experimental part:
as §1

Series [3] can be described thus: stability constants of Cu(II) complexes by pH-potentiometry. The following applies: for logβ [CuLH−1] / logβ [CuLH−2]− / logβ [CuL]+: 25 °C, I = 0.10 M (KCl); for pCu(II) (−log[Cu(II)]): calculated at pH 7.4, cCu(II) = 1 μM, cligand = 10 μM. The protocol:
Interaction between Pro-SISC-Me and Cu(II) ions could be studied by pH-potentiometry in water due to the adequate solubility of the species (Figure S7b), and the calculated overall stability constants are collected in Table 2. Based on the titration data, formation of only mono-ligand complexes ([CuL]^+, [CuLH−1], [CuLH−2]^−) was observed even at higher metal-to-ligand ratios. Stability constants for the complexes formed with the more lipophilic SISC were determined in the presence of 30% (v/v) DMSO/H2O (Figure S7a), and for the Cu(II)—Pro-SISC-Me system was studied as well in the same solvent system for comparison (Table 2). […] In the case of SISC, the stability constant could not be obtained for the [CuLH−2]^− species as in its formation pH range (>8) precipitation appeared in the solution. The thiosemicarbazone analogues (STSC and Pro-STSC-Me) also form exclusively mono-ligand complexes ([CuLH]^+, [CuL], [CuLH−1]^−), however, protonated complexes could not be found for SISC and Pro-SISC-Me.
as §1

The nature of series [4]: cyclic voltammetry of the iron complexes. The following applies: for cathodic peak potential of the iron complexes at pH 7.6: pH 7.6, 1:2 metal-to-ligand, E vs. Ag/AgCl/KCl (Figure S13b). The text has this:
Further differences were observed when the redox behavior of the iron complexes was monitored by cyclic voltammetry. In the case of SISC, only a cathodic peak could be observed in the pH range of the formation of the Fe(III) complexes (not shown), unlike for Pro-SISC-Me (Figure 8b), where quasi-reversible processes could be seen in a wide pH range (3.9–10.8). The cathodic peak measured at pH 7.6 was located at much lower potential than in the case of the SISC complex (−0.59 V vs. −0.38 V, Figure S13b). […] To reveal the coordination mode in the Fe(III)-Pro-SISC-Me complexes, crystallization experiments were performed and single crystals were obtained for the Na[Fe(III)(Pro-SISC-MeH−2)2](H2O)4 complex.
Cyclic voltammograms of the Cu(II) and Fe(III) complexes in 30% (v/v) DMSO/H2O containing 1 mM Cu(NO3)2 or 1 mM or 0.5 mM FeCl3 and 1 mM ligand were recorded at 25.0 ± 0.1 °C. Ionic strength was 0.10 M (TBAN). Measurements were performed on a conventional three-electrode system under nitrogen atmosphere using an Autolab PGSTAT 204 potentiostat/galvanostat monitored by Metrohm’s Nova software (Metrohm Autolab B.V., Utrecht, The Netherlands). Samples were purged with argon for 15 min before recording the cyclic voltammograms. Platinum electrodes were used as the working and auxiliary electrode and Ag/AgCl/3 M KCl as a reference electrode. The electrochemical system was calibrated with an aqueous solution of K3[Fe(CN)6] (E1/2 = +0.386 V vs. NHE).

Series [5] can be described thus: n-octanol/water distribution coefficient, shake-flask. The following applies: n-octanol/buffered aqueous solution, pH 7.4; n-octanol/H2O, pH 7.40, 25 °C, 0.10 M KCl; read-out: logD7.4. The protocol: Distribution coefficients (D7.4) values were determined by the traditional shake-flask method in n-octanol/buffered aqueous solution at pH 7.40 (20 mM HEPES, 0.10 M KCl) at 25.0 ± 0.2 °C as described previously.

`Cc1cc(C=NNC(=N)N)c(O)c(CN2CCCC2C(=O)O)c1` (stereo not shown) [Pro-SISC-Me]: in series [1], the “logβ [Fe(II)LH−1]” value is −1.08 ± 0.05, the “logβ [Fe(II)LH−2]−” value is recorded as less than −11, the “logβ [Fe(II)L]+” value is on record as 6.83 ± 0.04 and the “pFe(II) (−log[Fe(II)])” value is 6.1. For the same compound, in series [2] (25 °C, I = 0.10 M (KCl)), the “logβ [Fe(III)L2H−1]” value is listed as 18.40 ± 0.07, the “logβ [Fe(III)L2H−2]−” value worked out at 8.64 ± 0.08, the “logβ [Fe(III)L2]+” value was 27.63 ± 0.05 and the “logβ [Fe(III)L]2+” value stood at 15.25 ± 0.04. The “pFe(III)* (−logΣ[Fe(III)i(OH)j])” value in series [2] is recorded as 10.0. Further, in series [3] (30% DMSO), the “logβ [CuLH−1]” value was found to be 6.57 ± 0.05, the “logβ [CuLH−2]−” value is on record as −4.42 ± 0.06, the “logβ [CuL]+” value came to 15.08 ± 0.02 and the “pCu(II) (−log[Cu(II)])” value was 13.39. Besides, in series [3] (H2O), the “logβ [CuLH−1]” value is 6.96 ± 0.03, the “logβ [CuLH−2]−” value is on record as −3.22 ± 0.04, the “logβ [CuL]+” value was 14.99 ± 0.02 and the “pCu(II) (−log[Cu(II)])” value was 13.59. In addition, the “fraction of [CuL]+ at pH 7.4” value in series [3] (based on the stability constants) is given as 100%. Besides, the “E1/2 of the Fe(III)/Fe(II) redox couple of the iron complexes” value in series [4] (30% (v/v) DMSO/H2O, 1:2 metal-to-ligand ratio) is −0.32 V vs. NHE. In addition, in series [4] (30% (v/v) DMSO/H2O), the “cathodic peak potential of the iron complexes at pH 7.6” value is recorded as −0.59 V. Also, in series [5], the logD is -0.88 ± 0.05.
As for `N=C(N)NN=Cc1ccccc1O` [SISC, 2-(2-hydroxybenzylidene)hydrazinecarboximidamide], in series [1], the “logβ [Fe(II)LH−1]” value was −0.73 ± 0.07, the “logβ [Fe(II)LH−2]−” value is −8.94 ± 0.08, the “logβ [Fe(II)L]+” value is 7.20 ± 0.06 and the “pFe(II) (−log[Fe(II)])” value is 6.0. In series [2] (25 °C, I = 0.10 M (KCl)), the “logβ [Fe(III)L2]+” value is recorded as 27.46 ± 0.05 and the “logβ [Fe(III)L]2+” value stood at 14.96 ± 0.05. Moreover, in series [2], the “pFe(III)* (−logΣ[Fe(III)i(OH)j])” value is listed as 7.9. For the same compound, in series [3] (30% DMSO), the “logβ [CuLH−1]” value is listed as 6.28 ± 0.07, the “logβ [CuL]+” value came to 14.74 ± 0.02 and the “pCu(II) (−log[Cu(II)])” value is on record as 12.08. Besides, in series [4] ([Fe(III)L2]+ complex), the “cathodic peak potential of the iron complex (only a cathodic peak)” value is reported as −0.17 V vs. NHE. Further, the “cathodic peak potential of the iron complexes at pH 7.6” value in series [4] (30% (v/v) DMSO/H2O) is reported as −0.38 V. In series [5], the logD came out at 0.83.
